One test deals with AMPA receptors. Put plainly: Binding of 3H-AMPA to rat cerebra membrane material. The following applies: displacement of 3H-AMPA, membrane material from rat cerebra, incubated on ice for 60 minutes. The protocol:
(§1) The pharmacological activity of the compounds I and I' according to the invention was investigated on membrane material isolated from rat cerebra. To do this, the membrane material was treated in the presence of the compounds according to the invention with the radio-labeled substances ^3 H-2-amino-3-hydroxy-5-methyl-4-isoxazolepropionic acid (^3 H-AMPA) and ^3 H-5,7-dichlorokynurenic acid, which bind to specific receptors (AMPA and NMDA (N-methyl-D-aspartate) receptors respectively). The radioactivity of the treated membranes was then measured by scintillation counting. The amounts of bound ^3 H-AMPA and ^3 H-5,7-dichlorokynurenic acid, or the amounts of these radiolabeled substances displaced in each case, can be determined from the bound radioactivity. The resulting dissociation constant KI (I=inhibitor), which is a measure of the displacement by the active substance according to the invention, was calculated by iterative non-linear regression analysis with the statistical analysis system (SAS) on an IBM computer, similar to the "Ligand" program of P. J. Munson and D. Rodbard (Analytical Biochem. 107, (1980) 220, Ligand: Versatile Computerized Approach for Characterization of Ligand Binding Systems).
1. Binding of ^3 H-2-amino-3-hydroxy-5-methyl-4-isoxazolepropionic acid (^3 H-AMPA) […]

In test [1] the target is NMDA (N-methyl-D-aspartate) receptors. Put plainly: Binding of 3H-5,7-dichlorokynurenic acid to rat cerebra membrane material. Particulars: displacement of 3H-5,7-dichlorokynurenic acid, membrane material from rat cerebra, incubated on ice for 30 minutes. On the procedure:
as §1
2. Binding of ^3 H-5,7-dichlorokynurenic acid […]
In general terms: In a radioligand displacement assay an active substance lowers the binding of a labelled ligand.

A value given as a limit tells only on which side of the number the result lay.

For the compound `O=c1[nH]c2cc(Cl)c(-n3cccc3)cc2[nH]c1=O` [Example 1, 7-Chloro-6-(1-pyrrolyl)-2,3(1H,4H)-quinoxalinedione], the Ki on AMPA receptors is < 10 µM.

For `O=c1[nH]c2cc(-n3cccc3)c(C(F)(F)F)cc2[nH]c1=O` [Example 2, 6-(1-Pyrrolyl)-7-trifluoromethyl-2,3(1H,4H)-quinoxalinedione], the Ki in test [1] is < 10 µM.

Broadly, the Ki is a dissociation constant, usually derived from enzyme kinetics or from competition with a known ligand. Low values mean a stronger hold on the target, high ones a looser hold on the target.

The record behind these values is US5852017A, “2,3(1H,4H)-quinoxalinediones” (BASF Aktiengesellschaft, priority 1992, dated 1998).
